Drawing on patent publication US20240373846A1, “Herbicidal Compositions” (SYNGENTA CROP PROTECTION AG, priority 2021, published 2024), this text covers Observed for 12 compounds.

Test in all cases: Post-emergence efficacy
Format in all cases: in vivo

Experiment [1] has as its system Digitaria insularis (TRCIN). As to conditions: 100=total damage to plant, 0=no damage. The source says: (§1) When active ingredients are combined, the activity to be expected (E) for any given active ingredient combination obeys the so-called Colby Formula and can be calculated as follows (Colby, S. R., Calculating synergistic and antagonistic responses of herbicide combination, Weeds, Vol. 15, pages 20-22; 1967): • ppm=milligrams of active ingredient (a.i.) per litre • X=% action by first active ingredient using p ppm of the active ingredient • Y=% action by second active ingredient sing q ppm of the active ingredient.
(§2) According to Colby, the expected action of active ingredients A+B using p+q ppm of active ingredient is represented by the following formula: […]
(§3) If the action actually observed (O) is greater than the expected action E then the action of the combination is super-additive, i.e. there is a synergistic effect. In mathematical terms, synergism corresponds to a positive value for the difference of (O−E). In the case of purely complementary addition of activities (expected activity), said difference (O−E) is zero. A negative value of said difference (O−E) signals a loss of activity compared to the expected activity.
(§4) The efficacy of various compositions of the present invention were tested against plants including the following species: Amaranthus retroflexus (AMARE), Echinochloa crus-gali (ECHCG), Lolium multiflorum (LOLMU), Setaria faberi (SETFA), and Digitaria insularis (TRCIN). The compositions are applied post-emergence, and the tests evaluated at certain days-after-application (DAA) as indicated. The tests were evaluated (100=total damage to plant; 0=no damage to plant), and the results are shown below in tables B1 to B11 below.

Experiment [2] relates to Amaranthus retroflexus (AMARE). Particulars: 100=total damage to plant, 0=no damage.
Source text: as §1, §2, §3, §4

Experiment [3] relates to Echinochloa crus-gali (ECHCG). As to conditions: 100=total damage to plant, 0=no damage.
Source text: as §1, §2, §3, §4

The test system of a further experiment is Setaria faberi (SETFA). Particulars: Table B8, 13 DAA, 100=total damage to plant, 0=no damage.
Source text: as §1, §2, §3, §4

Experiment [4] deals with Lolium multiflorum (LOLMU). Particulars: Table B11, 15DAA, 100=total damage to plant, 0=no damage.
Source text: as §1, §2, §3, §4

In the case of `COc1ccc(-n2c(=O)c(C(=O)C3C(=O)CCCC3=O)nc3c(Cl)cccc32)cc1` [Formula B1d, fenquinotrione], the Observed is on record as 35 in experiment [1] (Table B2, 16DAA, 500 g/ha) and 43 in experiment [1] (Table B2, 16DAA, 1000 g/ha).

As to `CS(=O)(=O)c1ccc(C(=O)C2C(=O)CCCC2=O)c([N+](=O)[O-])c1` [Formula B1f, mesotrione], the Observed in experiment [2] (Table B3, 13 DAA, 3.75 g/ha) is 18.

For the compound `CCOCN(C(=O)CCl)c1c(C)cccc1CC` [Formula B2a, acetochlor], the Observed in experiment [3] (Table B4, 15DAA, 4000 g/ha) was found to be 50.

On to `Cn1nc(C(F)(F)F)c(CS(=O)(=O)C2=NOC(C)(C)C2)c1OC(F)F` [Formula B2d, pyroxasulfone], for which the Observed is given as 38 in experiment [3] (Table B5, 15DAA, 125 g/ha) and 35 in experiment [3] (Table B5, 15DAA, 250 g/ha).

`CCOC(=O)c1ccccc1S(=O)(=O)NC(=O)Nc1nc(Cl)cc(OC)n1` [Formula B3c, chlorimuron-ethyl]: the Observed in experiment [2] (Table B6, 13DAA, 1.88 g/ha) came to 88; in experiment [2] (Table B6, 13DAA, 7.5 g/ha) it was 83.

Consider `CCc1cnc(C2=NC(C)(C(C)C)C(=O)N2)c(C(=O)O)c1` (stereo not shown) [Formula B3j, imazethapyr], for which the Observed in experiment [1] (Table B7, 16DAA, 8 g/ha) is recorded as 30; in experiment [1] (Table B7, 16DAA, 15 g/ha), 53.

Turning to `COc1cc(OC)nc(NC(=O)NS(=O)(=O)c2ncccc2C(=O)N(C)C)n1` [Formula B3m, nicosulfuron], the Observed in the experiment with Setaria faberi (SETFA) (0.94 g/ha), in the experiment with Setaria faberi (SETFA) (1.88 g/ha) and in the experiment with Setaria faberi (SETFA) (3.75 g/ha) was 0 each time.

Consider `CCNc1nc(Cl)nc(NC(C)C)n1` [Formula B4c, atrazine], for which the Observed in experiment [3] (Table B9, 20DAA, 500 g/ha) came to 60.

On to `CSc1nnc(C(C)(C)C)c(=O)n1N` [Formula B4g, metribuzin], for which, in experiment [2] (Table B10, 13 DAA, 7.5 g/ha), the Observed is listed as 0.

With `FC(F)c1cc(-c2c(Cl)cccc2Oc2ncc(Cl)cn2)on1` [Formula B5d, rimisoxafen], the Observed in experiment [4] (30 g/ha) is 18.

Consider `CC#Cc1ccc(C2=C(OC(=O)OC)C3CCC(C3)C2=O)c(OC)c1` (stereo not shown) [Formula Ic], for which the Observed is recorded as 60 in experiment [4] (12.5 g/ha); 3 with Setaria faberi (SETFA) (0.47 g/ha); 0 in the experiment with Setaria faberi (SETFA) (0.94 g/ha); 0 in the experiment on Setaria faberi (SETFA) (1.88 g/ha); 0 in experiment [2] (Table B1, 13 DAA, 0.47 g/ha); 0 in experiment [2] (Table B1, 13 DAA, 0.94 g/ha). Also, the Observed in experiment [2] (Table B3, 13 DAA, 0.47 g/ha) is on record as 10; in experiment [2] (Table B3, 13 DAA, 0.94 g/ha), 0; in experiment [2] (Table B6, 13DAA, 1.88 g/ha) it was 7.5; in experiment [2] (Table B10, 13 DAA, 0.47 g/ha), 10; in experiment [2] (Table B10, 13 DAA, 0.94 g/ha), 0; in experiment [2] (Table B10, 13 DAA, 1.88 g/ha) it was 0. Besides, the Observed in experiment [1] (Table B7, 16DAA, 3.125 g/ha) was found to be 15.

Consider bicyclopyrone [Formula B1b], for which the Observed was determined as 23 in experiment [2] (Table B1, 13 DAA, 0.94 g/ha) and 45 in experiment [2] (Table B1, 13 DAA, 1.88 g/ha).
